≈ marks a conversion by molar mass, not a printed value.
Key:
Experiment in all cases: microbe, parasite or virus in culture
Enterobacter cloacae [1] = tested on: Enterobacter cloacae
Description: Minimum inhibitory concentration in Enterobacter cloacae, P99- inducible type 1 lactamase producer

Pseudomonas aeruginosa [2] = tested on: Pseudomonas aeruginosa
Description: Minimum inhibitory concentration in Pseudomonas aeruginosa, 18S inducible type 1 lactamase producer

Enterobacter cloacae [3] = tested on: Enterobacter cloacae; remark: listed apart in the source
Description: Minimum inhibitory concentration in Enterobacter cloacae, P99+ constitutive depressed type 1 lactamase producer

Staphylococcus aureus [4] = tested on: Staphylococcus aureus
Description: The compound was tested for minimum inhibitory concentration in Staphylococcus aureus Oxford penicillin sensitive Staphylococcus aureus

Providencia stuartii [5] = tested on: Providencia stuartii
Description: Minimum inhibitory concentration in Pseudomonas stuartii, DR 442049 constitutive depressed type 1 lactamase producer

Pseudomonas aeruginosa [6] = tested on: Pseudomonas aeruginosa; remark: listed apart in the source
Description: Minimum inhibitory concentration in Pseudomonas aeruginosa, 18SH constitutive depressed type 1 lactamase producer

Escherichia coli [7] = tested on: Escherichia coli
Description: In vitro minimum inhibitory concentration against Escherichia coli (DC2 permeability mutant).

Enterobacter cloacae [8] = tested on: Enterobacter cloacae; remark: listed apart in the source
Description: Minimum inhibitory concentration in Enterobacter cloacae, I+401029 inducible type 1 lactamase producer

Escherichia coli [9] = tested on: Escherichia coli; remark: listed apart in the source
Description: In vitro minimum inhibitory concentration against Escherichia coli (DC0 parent organism).

Providencia stuartii [10] = tested on: Providencia stuartii; remark: listed apart in the source
Description: Minimum inhibitory concentration in Pseudomonas stuartii, I+442019 inducible type 1 lactamase producer

Pseudomonas aeruginosa [11] = tested on: Pseudomonas aeruginosa; remark: listed apart in the source
Description: Minimum inhibitory concentration in Pseudomonas aeruginosa,799WT parent organism

Pseudomonas aeruginosa [12] = tested on: Pseudomonas aeruginosa; remark: listed apart in the source
Description: In vitro minimum inhibitory concentration against Pseudomonas aeruginosa (PU21).

Citrobacter freundii [13] = tested on: Citrobacter freundii
Description: Minimum inhibitory concentration in Citrobacter freundii, DR 382031 constitutive depressed type 1

Staphylococcus aureus [14] = tested on: Staphylococcus aureus; remark: listed apart in the source
Description: The compound was tested for minimum inhibitory concentration in Staphylococcus aureus,147N penicillin sensitive Staphylococcus aureus

Pseudomonas aeruginosa [15] = tested on: Pseudomonas aeruginosa; remark: listed apart in the source
Description: Minimum inhibitory concentration in Pseudomonas aeruginosa,799/61 permeability mutant

Citrobacter freundii [16] = tested on: Citrobacter freundii; remark: listed apart in the source
Description: Minimum inhibitory concentration in Citrobacter freundii, I+382010 inducible type 1 lactamase producer

Enterobacter cloacae [17] = tested on: Enterobacter cloacae; remark: listed apart in the source
Description: Minimum inhibitory concentration in Enterobacter cloacae, DR 401108 constitutive depressed type 1 lactamase producer

`CC(=O)Oc1ccc(C(=O)OCC2=C(C(=O)O)N3C(=O)[C@@H](NC(=O)Cc4cccs4)C3SC2)cc1OC(C)=O` (stereo not given in full) gave an MIC (Enterobacter cloacae [1]) of 16 µg/mL (≈ 27.8 µM), an MIC (Pseudomonas aeruginosa [2]) of over 128 µg/mL and an MIC (Enterobacter cloacae [3]) of over 128 µg/mL. It also gave an MIC (Staphylococcus aureus [4]) of 0.03 µg/mL (≈ 0.0522 µM), an MIC (Providencia stuartii [5]) of over 128 µg/mL and an MIC (Pseudomonas aeruginosa [6]) of over 128 µg/mL. It also gave an MIC (Escherichia coli [7]) of 0.03 µg/mL (≈ 0.0522 µM), an MIC (Enterobacter cloacae [8]) of 128 µg/mL (≈ 223 µM) and an MIC (Escherichia coli [9]) of 0.5 µg/mL (≈ 0.87 µM). It also gave an MIC (Providencia stuartii [10]) of 64 µg/mL (≈ 111 µM), an MIC (Pseudomonas aeruginosa [11]) of over 128 µg/mL and an MIC (Pseudomonas aeruginosa [12]) of over 128 µg/mL. The MIC (Citrobacter freundii [13]) was over 128 µg/mL, the MIC (Staphylococcus aureus [14]) was 0.06 µg/mL (≈ 0.104 µM) and the MIC (Pseudomonas aeruginosa [15]) was 0.125 µg/mL (≈ 0.218 µM). For the same molecule, the MIC (Citrobacter freundii [16]) was 16 µg/mL (≈ 27.8 µM).

Work on `CCO/N=C(\C(=O)N[C@@H]1C(=O)N2C(C(=O)O)=C(CNC(=O)c3ccc(O)c(O)c3)CSC12)c1csc(N)n1` (stereo not given in full) yielded an MIC (Enterobacter cloacae [1]) of 0.5 µg/mL (≈ 0.889 µM), an MIC (Pseudomonas aeruginosa [2]) of 0.03 µg/mL (≈ 0.0533 µM) and an MIC (Enterobacter cloacae [3]) of 64 µg/mL (≈ 114 µM). It also gave an MIC (Staphylococcus aureus [4]) of 2 µg/mL (≈ 3.56 µM), an MIC (Providencia stuartii [5]) of 1 µg/mL (≈ 1.78 µM) and an MIC (Pseudomonas aeruginosa [6]) of 64 µg/mL (≈ 114 µM). It also gave an MIC (Enterobacter cloacae [17]) of 128 µg/mL (≈ 228 µM), an MIC (Escherichia coli [7]) of 0.008 µg/mL (≈ 0.0142 µM) and an MIC (Enterobacter cloacae [8]) of 0.25 µg/mL (≈ 0.444 µM). For the same molecule, the MIC (Escherichia coli [9]) was 0.06 µg/mL (≈ 0.107 µM), the MIC (Providencia stuartii [10]) was 0.5 µg/mL (≈ 0.889 µM) and the MIC (Pseudomonas aeruginosa [11]) was 0.06 µg/mL (≈ 0.107 µM). It also gave an MIC (Pseudomonas aeruginosa [12]) of 0.25 µg/mL (≈ 0.444 µM), an MIC (Citrobacter freundii [13]) of over 128 µg/mL and an MIC (Staphylococcus aureus [14]) of 4 µg/mL (≈ 7.11 µM). It also gave an MIC (Pseudomonas aeruginosa [15]) of 0.015 µg/mL (≈ 0.0267 µM) and an MIC (Citrobacter freundii [16]) of 0.06 µg/mL (≈ 0.107 µM).

`C=C(CO/N=C(\C(=O)N[C@@H]1C(=O)N2C(C(=O)O)=C(CNC(=O)c3cc(O)c(O)c(Br)c3)CSC12)c1csc(N)n1)C(=O)O` (stereo not given in full) gave an MIC (Enterobacter cloacae [1]) of 0.06 µg/mL (≈ 0.086 µM), an MIC (Pseudomonas aeruginosa [2]) of 0.008 µg/mL (≈ 0.0115 µM) and an MIC (Enterobacter cloacae [3]) of 8 µg/mL (≈ 11.5 µM). The MIC (Staphylococcus aureus [4]) was 16 µg/mL (≈ 22.9 µM), the MIC (Providencia stuartii [5]) was 2 µg/mL (≈ 2.87 µM) and the MIC (Pseudomonas aeruginosa [6]) was 0.05 µg/mL (≈ 0.0717 µM). The MIC (Enterobacter cloacae [17]) was over 32 µg/mL, the MIC (Escherichia coli [7]) was 0.008 µg/mL (≈ 0.0115 µM) and the MIC (Enterobacter cloacae [8]) was 0.06 µg/mL (≈ 0.086 µM). The MIC (Escherichia coli [9]) was 0.008 µg/mL (≈ 0.0115 µM), the MIC (Providencia stuartii [10]) was 0.03 µg/mL (≈ 0.043 µM) and the MIC (Pseudomonas aeruginosa [11]) was 0.008 µg/mL (≈ 0.0115 µM). It also gave an MIC (Pseudomonas aeruginosa [12]) of 0.03 µg/mL (≈ 0.043 µM), an MIC (Citrobacter freundii [13]) of 16 µg/mL (≈ 22.9 µM) and an MIC (Staphylococcus aureus [14]) of 16 µg/mL (≈ 22.9 µM). It also gave an MIC (Pseudomonas aeruginosa [15]) of 0.008 µg/mL (≈ 0.0115 µM) and an MIC (Citrobacter freundii [16]) of 0.008 µg/mL (≈ 0.0115 µM).

With `CC(C)(O/N=C(\C(=O)N[C@@H]1C(=O)N2C(C(=O)O)=C(CNC(=O)c3cc(O)c(O)c(C#N)c3)CSC12)c1csc(N)n1)C(=O)O` (stereo not given in full) the MIC (Enterobacter cloacae [1]) was 0.06 µg/mL (≈ 0.0929 µM), the MIC (Pseudomonas aeruginosa [2]) was 0.008 µg/mL (≈ 0.0124 µM) and the MIC (Enterobacter cloacae [3]) was 2 µg/mL (≈ 3.1 µM). The MIC (Providencia stuartii [5]) was 4 µg/mL (≈ 6.2 µM), the MIC (Pseudomonas aeruginosa [6]) was 0.06 µg/mL (≈ 0.0929 µM) and the MIC (Enterobacter cloacae [17]) was 8 µg/mL (≈ 12.4 µM). It also gave an MIC (Enterobacter cloacae [8]) of 0.03 µg/mL (≈ 0.0465 µM), an MIC (Providencia stuartii [10]) of 0.06 µg/mL (≈ 0.0929 µM) and an MIC (Pseudomonas aeruginosa [11]) of 0.008 µg/mL (≈ 0.0124 µM). The MIC (Citrobacter freundii [13]) was 2 µg/mL (≈ 3.1 µM), the MIC (Pseudomonas aeruginosa [15]) was 0.008 µg/mL (≈ 0.0124 µM) and the MIC (Citrobacter freundii [16]) was 0.008 µg/mL (≈ 0.0124 µM).

`CCOC(=O)c1nc2cc(O)c(O)cc2nc1C(=O)NCC1=C(C(=O)O)N2C(=O)[C@@H](NC(=O)/C(=N\OC(C)(C)C(=O)O)c3csc(N)n3)C2SC1` (stereo not given in full) showed an MIC (Enterobacter cloacae [1]) of 0.03 µg/mL (≈ 0.0403 µM), an MIC (Pseudomonas aeruginosa [2]) of 0.008 µg/mL (≈ 0.0107 µM) and an MIC (Enterobacter cloacae [3]) of 0.06 µg/mL (≈ 0.0806 µM). For the same molecule, the MIC (Providencia stuartii [5]) was 2 µg/mL (≈ 2.69 µM), the MIC (Pseudomonas aeruginosa [6]) was 0.015 µg/mL (≈ 0.0201 µM) and the MIC (Enterobacter cloacae [17]) was 0.5 µg/mL (≈ 0.671 µM). For the same molecule, the MIC (Enterobacter cloacae [8]) was 0.03 µg/mL (≈ 0.0403 µM), the MIC (Providencia stuartii [10]) was 0.06 µg/mL (≈ 0.0806 µM) and the MIC (Pseudomonas aeruginosa [11]) was 0.008 µg/mL (≈ 0.0107 µM). The MIC (Citrobacter freundii [13]) was 0.06 µg/mL (≈ 0.0806 µM), the MIC (Pseudomonas aeruginosa [15]) was 0.008 µg/mL (≈ 0.0107 µM) and the MIC (Citrobacter freundii [16]) was 0.008 µg/mL (≈ 0.0107 µM).

In the case of `Nc1nc(/C(=N/OC2(C(=O)O)CCCC2)C(=O)N[C@@H]2C(=O)N3C(C(=O)O)=C(CNC(=O)c4cc(O)c(O)c(Br)c4)CSC23)cs1` (stereo not given in full), the MIC (Enterobacter cloacae [1]) is reported as 0.03 µg/mL (≈ 0.0413 µM), the MIC (Pseudomonas aeruginosa [2]) is reported as 0.015 µg/mL (≈ 0.0207 µM) and the MIC (Enterobacter cloacae [3]) is reported as 2 µg/mL (≈ 2.76 µM). The MIC (Staphylococcus aureus [4]) was 16 µg/mL (≈ 22.1 µM), the MIC (Providencia stuartii [5]) was 2 µg/mL (≈ 2.76 µM) and the MIC (Pseudomonas aeruginosa [6]) was 0.008 µg/mL (≈ 0.011 µM). For the same molecule, the MIC (Enterobacter cloacae [17]) was 16 µg/mL (≈ 22.1 µM), the MIC (Escherichia coli [7]) was 0.008 µg/mL (≈ 0.011 µM) and the MIC (Enterobacter cloacae [8]) was 0.03 µg/mL (≈ 0.0413 µM). The MIC (Escherichia coli [9]) was 0.008 µg/mL (≈ 0.011 µM), the MIC (Providencia stuartii [10]) was 0.03 µg/mL (≈ 0.0413 µM) and the MIC (Pseudomonas aeruginosa [11]) was 0.008 µg/mL (≈ 0.011 µM). The MIC (Pseudomonas aeruginosa [12]) was 0.015 µg/mL (≈ 0.0207 µM), the MIC (Citrobacter freundii [13]) was 4 µg/mL (≈ 5.51 µM) and the MIC (Staphylococcus aureus [14]) was 32 µg/mL (≈ 44.1 µM). It also gave an MIC (Pseudomonas aeruginosa [15]) of 0.008 µg/mL (≈ 0.011 µM) and an MIC (Citrobacter freundii [16]) of 0.008 µg/mL (≈ 0.011 µM).

With `CCN(CC1=C(C(=O)O)N2C(=O)[C@@H](NC(=O)/C(=N\OC(C)(C)C(=O)O)c3csc(N)n3)C2SC1)C(=O)c1cc(O)c(O)c(C#N)c1` (stereo not given in full) the MIC (Enterobacter cloacae [1]) was 0.06 µg/mL (≈ 0.0891 µM), the MIC (Pseudomonas aeruginosa [2]) was 0.008 µg/mL (≈ 0.0119 µM) and the MIC (Enterobacter cloacae [3]) was 1 µg/mL (≈ 1.48 µM). It also gave an MIC (Providencia stuartii [5]) of 16 µg/mL (≈ 23.7 µM), an MIC (Pseudomonas aeruginosa [6]) of 0.125 µg/mL (≈ 0.186 µM) and an MIC (Enterobacter cloacae [17]) of 1 µg/mL (≈ 1.48 µM). For the same molecule, the MIC (Enterobacter cloacae [8]) was 0.015 µg/mL (≈ 0.0223 µM), the MIC (Providencia stuartii [10]) was 0.25 µg/mL (≈ 0.371 µM) and the MIC (Pseudomonas aeruginosa [11]) was 0.008 µg/mL (≈ 0.0119 µM). The MIC (Citrobacter freundii [13]) was 1 µg/mL (≈ 1.48 µM), the MIC (Pseudomonas aeruginosa [15]) was 0.008 µg/mL (≈ 0.0119 µM) and the MIC (Citrobacter freundii [16]) was 0.008 µg/mL (≈ 0.0119 µM).

In the case of `CCOC(=O)C(CC1=C(C(=O)O)N2C(=O)[C@@H](NC(=O)/C(=N\OC(C)(C)C(=O)O)c3csc(N)n3)C2SC1)C(=O)c1cc(O)c(O)c(Br)c1` (stereo not given in full), the MIC (Enterobacter cloacae [1]) is reported as 0.125 µg/mL (≈ 0.162 µM), the MIC (Pseudomonas aeruginosa [2]) is reported as 0.008 µg/mL (≈ 0.0104 µM) and the MIC (Enterobacter cloacae [3]) is reported as 0.25 µg/mL (≈ 0.324 µM). For the same molecule, the MIC (Providencia stuartii [5]) was 0.5 µg/mL (≈ 0.649 µM), the MIC (Pseudomonas aeruginosa [6]) was 0.008 µg/mL (≈ 0.0104 µM) and the MIC (Enterobacter cloacae [17]) was 0.25 µg/mL (≈ 0.324 µM). It also gave an MIC (Enterobacter cloacae [8]) of 0.03 µg/mL (≈ 0.0389 µM), an MIC (Providencia stuartii [10]) of 0.125 µg/mL (≈ 0.162 µM) and an MIC (Pseudomonas aeruginosa [11]) of 0.008 µg/mL (≈ 0.0104 µM). It also gave an MIC (Citrobacter freundii [13]) of 0.25 µg/mL (≈ 0.324 µM), an MIC (Pseudomonas aeruginosa [15]) of 0.008 µg/mL (≈ 0.0104 µM) and an MIC (Citrobacter freundii [16]) of 0.008 µg/mL (≈ 0.0104 µM).

Reference: ChEMBL document CHEMBL1126299, “Synthesis and structure-activity relationships of cephalosporins with C-3' catechol-containing residues” (J Med Chem, 1992)
